Results as given in article PMC7791840, “The R-enantiomer of ketorolac reduces ovarian cancer tumor burden in vivo” (BMC Cancer, 2021).
Where a name gives a salt, the structure may show the parent alone.

Assays:
Rac1 = tested on: Rac1; design: method as in earlier work; conditions: cell-based assays, ovarian tumor cells; ref 23 (R-ketorolac), 27 (S-ketorolac); cited from earlier work
[1] = Ketorolac enantiomers in mouse blood/serum by HPLC after two-week treatment; format: in vivo, mice
Excerpt: For two-week tumor studies, 1 × 10^6 non-treated SKOV3ip-GFP cells were i.p. injected. All mice started R-ketorolac treatment one day prior to cell injection and continued treatment until conclusion of the study 14 days later. Mice were imaged using a Light Tools imaging system (Synopsys Optical Solutions, Westminster CO) with long pass GFP filters. Three images per mouse were captured to ensure all tumors were counted. Green fluorescent tumors were identified and counted in the peritoneal cavity as single tumors if there was a distinct border of non-fluorescent tissue. […] Blood was collected via cardiac puncture and ketorolac enantiomer concentrations were measured by HPLC analysis as described in Supplemental Methods (Additional File 1: Supplemental Methods). […]
SKOV3ip cells were modified to express GFP-Rac1 by transfection with pcDNA3-EGFP-Rac1-wt (Catalog # 12980, Addgene) as described for SKOV3ip-GFP cells under Methods. Rac1 overexpression quantification and verification was completed by western blot and qPCR. […]
Omental tissue was harvested and stored on ice in PBS for no more than 1 hour before analysis. Omenta were blotted dry on lab tissue and weight was measured using an analytical balance (Denver Instruments Company, A -160). […]
Samples were then centrifuged at 4000x g for 10 minutes at 4°C. […] Ketorolac was detected using a UV spectrometer set at UV310. […]

SKOV3ip-GFP cells = assay: Short-term omental engraftment assay; format: in vivo, mice; conditions: 18 h post i.p. injection; 1 mg/kg oral every 12 h; cells pretreated with 10 μM; vs placebo
Method: Mice were conditioned to placebo pills for two days prior to drug treatment. […] Consumption was confirmed by visual observation. […] Omenta were harvested from animals 18 h post-injection and placed in ice cold 1X phosphate-buffered saline (PBS) until imaged with an Olympus IX70 inverted fluorescent microscope and Olympus CellSens software. SKOV3ip-GFP cells were subsequently digested from the omentum using 10% NP-40 substitute (Sigma, cat# 74385) in 1X PBS for 30 min at 37 °C. Omenta were gently homogenized using disposable micropestles, centrifuged, and fluorescence intensity was measured using a […] Spectramax M2 plate spectrophotometer (ex:480 nm, em:520 nm).

RhoA = tested on: RhoA; design: method as in PMID 26071482; conditions: cited from earlier work
ovarian tumor cell = tested on: ovarian tumor cell; design: method as in PMID 26071482, PMID 26558612, PMID 26206334; conditions: cited from earlier work
[2] = mouse, in vivo
Method: Foxn1^nu NU /J athymic nude female mice, aged 6–9 weeks, were purchased from The Jackson Laboratory (Bar Harbor, ME, stock number 002019). […] Mice were maintained at a controlled temperature of 22–23 °C, with a 12-h light/12-h dark cycle. Water and standard mouse chow were available ad libitum. […] Their health status was monitored throughout the experiment. […] Mice were euthanized using a CO2 chamber in accordance with the recommendation of the Panel on Euthanasia of the American Veterinary Medical Association. Cervical dislocation was then carried out to confirm death before tumor analysis and tissue collection.

COX-1 = tested on: COX-1; design: method as in PMID 26558612, PMID 10027870; conditions: cited from earlier work
COX-2 = tested on: COX-2; design: method as in PMID 26558612, PMID 10027870; conditions: cited from earlier work
[3] = humans, multiple dosing regimens over 5 days; cited from earlier work

| Structure (SMILES) | IC50 (Rac1) [µM] | Accumulation with repeated dosing ([1]; mice, daily dosing 14 days) | concentration at 14 day ([1]; mouse, serum, at conclusion of chronic administration (14 day) tumor study, 1 mg/kg twice daily oral, read-out: Steady state blood concentration of R-ketorolac) [ng/mL] | Omental engraftment (GFP fluorescence, omental localization of SKOV3ip-GFP cells) (SKOV3ip-GFP cells) | Inhibition of RhoA activity (RhoA) | Ovarian tumor cell adhesion, migration and invadopodia formation (ovarian tumor cell) | Cytotoxicity (ovarian tumor cell; ovarian tumor cells) | Body weight [2] | IC50 (COX-1) [µM] | IC50 (COX-2) [µM] | Accumulation of enantiomers with multiple dosing [3] |
| --- | --- | --- | --- | --- | --- | --- | --- | --- | --- | --- | --- |
| O=C(c1ccccc1)c1ccc2n1CC[C@H]2C(=O)O [R-ketorolac] | 0.57 | does not appear to accumulate with repeated dosing | ~1400 | decreased the omental localization of SKOV3ip-GFP cells | does not inhibit the activity of RhoA | inhibited ovarian tumor cell adhesion, migration and invadopodia formation | without cytotoxicity | No significant difference in body weight | > 100 | > 100 |  |
| O=C(c1ccccc1)c1ccc2n1CCC2C(=O)O (centres unmarked) [R−/S-ketorolac, ketorolac tromethamine salt] |  |  |  |  |  |  |  |  |  |  | did not result in accumulation of either enantiomer |
